Laboratory results taken from patent publication US20180289678A1, “PHARMACEUTICAL COMPOSITION, PHARMACEUTICAL DOSAGE FORM, PROCESS FOR THEIR PREPARATION, METHODS FOR TREATING AND USES THEREOF” (Boehringer Ingelheim International GmbH, priority 2009, published 2018).
Where two headings read alike, the source gives them in different places.

Test: Study .2: multiple rising dose trial in diabetic patients, once daily for 8 days, pharmacokinetic parameters
Format: in vivo, human
Details: for AUCτ,ss,norm Max / AUCτ,ss,norm Median / AUCτ,ss,norm Min / AUCτ,ss,norm gMean / Cmax,ss,norm Max / Cmax,ss,norm Median / Cmax,ss,norm Min / Cmax,ss,norm gMean: Study .2, steady state, dose-normalized
Method: 5. Pharmacokinetic Parameters
The pharmacokinetic parameters of pharmaceutical compositions and pharmaceutical dosage forms are assessed in healthy volunteer and patient populations. In the studies shown below, the participants fasted on the day of sampling, unless as otherwise stated (see for example study .3). The active substance in the studies below is the compound (I.9), preferably in the crystalline form (I.9X), and the dose of active ingredient is indicated in mg.
For the quantification of plasma concentrations of the active ingredient, 2.7 mL of blood was collected and transferred into an EDTA (ethylendiaminetetraacetic acid)-anticoagulant blood drawing tube. The EDTA-anticoagulated blood samples were centrifuged immediately after collection. Centrifugation lasted for about 10 minutes (at about 2,000×gf to 4,000×gf) at 4-8° C. or within 30 minutes while stored on ice. Concentrations of active substance in EDTA human plasma samples were quantitated using a HPLC/MS/MS method. The assay method comprised a solid phase supported liquid-liquid extraction of human plasma coupled with HPLC/MS/MS determination of the extracted samples. The HPLC/MS/MS assay was validated for the range of 1.11 to 1110 nM in human plasma.
Study .2: Multiple rising dose trial in a diabetic patient population of N=48, once daily administration for 8 days. Patients were administered tablets as described in Example 10 (section Examples of formulations).
AUC0-inf:area under the concentration-time curve of the analyte in plasma over the time interval from 0 extrapolated to infinity.
Cmax: maximum concentration of the analyte in plasma.
Tmax: time from dosing to maximum concentration.
AUCT,SS:area under the concentration-time curve of the analyte in plasma over the time interval from 0 to 24 h at steady-state.
Cmax,ss:maximum concentration of the analyte in plasma at steady state over a uniform dosing interval.
tmax,ss:time from dosing to maximum concentration at steady state.

[1] = 2.5 mg once daily, steady state, Study .2, fasted
[2] = 2.5 mg single dose, Study .2, fasted
[3] = 10 mg once daily, steady state, Study .2, fasted
[4] = 10 mg single dose, Study .2, fasted
[5] = 25 mg once daily, steady state, Study .2, fasted
[6] = 25 mg single dose, Study .2, fasted

OC[C@H]1O[C@@H](c2ccc(Cl)c(Cc3ccc(O[C@H]4CCOC4)cc3)c2)[C@H](O)[C@@H](O)[C@@H]1O [Compound (I.9), 1-chloro-4-(β-D-glucopyranos-1-yl)-2-[4-((S)-tetrahydrofuran-3-yloxy)-benzyl]-benzene]
AUCτ,ss Max [1]: 0.677 µM·h
AUCτ,ss Mean [1]: 0.471 µM·h
AUCτ,ss Min [1]: 0.283 µM·h
tmax,ss Median [1]: 1.50 h
tmax,ss Min [1]: 0.983 h
Cmax (2.5 mg once daily, steady state, Study .2, fasted, read-out: Cmax,ss Max): 96.3 nM
Cmax (2.5 mg once daily, steady state, Study .2, fasted, read-out: Cmax,ss Mean): 68.5 nM
Cmax (2.5 mg once daily, steady state, Study .2, fasted, read-out: Cmax,ss Min): 40.3 nM
AUC0-inf Max [2]: 0.631 µM·h
AUC0-inf Min [2]: 0.326 µM·h
AUC0-inf,norm Max [2]: 252 nmol·h/L/mg
AUC0-inf,norm Median [2]: 200 nmol·h/L/mg
AUC0-inf,norm Min [2]: 130 nmol·h/L/mg
AUC0-inf,norm gMean [2]: 187 nmol·h/L/mg
Cmax,norm Max [2]: 32 nmol/L/mg
Cmax,norm Median [2]: 25 nmol/L/mg
Cmax,norm Min [2]: 17 nmol/L/mg
Cmax,norm gMean [2]: 25 nmol/L/mg
tmax Max [2]: 1.50 h
tmax Min [2]: 0.667 h
Cmax (2.5 mg single dose, Study .2, fasted, read-out: Cmax Max): 81.2 nM
Cmax (2.5 mg single dose, Study .2, fasted, read-out: Cmax Mean): 62.4 nM
Cmax (2.5 mg single dose, Study .2, fasted, read-out: Cmax Min): 43.3 nM
AUCτ,ss Max [3]: 2.58 µM·h
AUCτ,ss Mean [3]: 2.03 µM·h
AUCτ,ss Min [3]: 1.64 µM·h
tmax,ss Min [3]: 0.983 h
Cmax (10 mg once daily, steady state, Study .2, fasted, read-out: Cmax,ss Max): 479 nM
Cmax (10 mg once daily, steady state, Study .2, fasted, read-out: Cmax,ss Mean): 283 nM
Cmax (10 mg once daily, steady state, Study .2, fasted, read-out: Cmax,ss Min): 172 nM
AUC0-inf Max [4]: 2.4 µM·h
AUC0-inf Min [4]: 1.6 µM·h
AUC0-inf,norm Max [4]: 240 nmol·h/L/mg
AUC0-inf,norm Median [4]: 183 nmol·h/L/mg
AUC0-inf,norm Min [4]: 160 nmol·h/L/mg
AUC0-inf,norm gMean [4]: 189 nmol·h/L/mg
Cmax,norm Max [4]: 34 nmol/L/mg
Cmax,norm Median [4]: 23 nmol/L/mg
Cmax,norm Min [4]: 16 nmol/L/mg
Cmax,norm gMean [4]: 24 nmol/L/mg
tmax Median [4]: 1.50 h
tmax Min [4]: 0.983 h
Cmax (10 mg single dose, Study .2, fasted, read-out: Cmax Max): 344 nM
Cmax (10 mg single dose, Study .2, fasted, read-out: Cmax Mean): 245 nM
Cmax (10 mg single dose, Study .2, fasted, read-out: Cmax Min): 163 nM
AUCτ,ss Max [5]: 6.65 µM·h
AUCτ,ss Mean [5]: 4.99 µM·h
AUCτ,ss Min [5]: 3.44 µM·h
tmax,ss Max [5]: 4.20 h
tmax,ss Min [5]: 0.667 h
Cmax (25 mg once daily, steady state, Study .2, fasted, read-out: Cmax,ss Max): 793 nM
Cmax (25 mg once daily, steady state, Study .2, fasted, read-out: Cmax,ss Mean): 630 nM
Cmax (25 mg once daily, steady state, Study .2, fasted, read-out: Cmax,ss Min): 443 nM
AUC0-inf Max [6]: 6.92 µM·h
AUC0-inf Min [6]: 3.69 µM·h
AUC0-inf,norm Max [6]: 277 nmol·h/L/mg
AUC0-inf,norm Median [6]: 186 nmol·h/L/mg
AUC0-inf,norm Min [6]: 148 nmol·h/L/mg
AUC0-inf,norm gMean [6]: 191 nmol·h/L/mg
Cmax,norm Max [6]: 36 nmol/L/mg
Cmax,norm Median [6]: 23 nmol/L/mg
Cmax,norm Min [6]: 17 nmol/L/mg
Cmax,norm gMean [6]: 24 nmol/L/mg
tmax Max [6]: 4.00 h
tmax Min [6]: 0.983 h
Cmax (25 mg single dose, Study .2, fasted, read-out: Cmax Max): 905 nM
Cmax (25 mg single dose, Study .2, fasted, read-out: Cmax Mean): 606 nM
Cmax (25 mg single dose, Study .2, fasted, read-out: Cmax Min): 420 nM
AUCτ,ss,norm Max (dose 2.5 mg, plasma): 271 nmol·h/L/mg
AUCτ,ss,norm Median (dose 2.5 mg, plasma): 183 nmol·h/L/mg
AUCτ,ss,norm Min (dose 2.5 mg, plasma): 113 nmol·h/L/mg
AUCτ,ss,norm gMean (dose 2.5 mg, plasma): 184 nmol·h/L/mg
Cmax,ss,norm Max (dose 2.5 mg, plasma): 39 nmol/L/mg
Cmax,ss,norm Median (dose 2.5 mg, plasma): 29 nmol/L/mg
Cmax,ss,norm Min (dose 2.5 mg, plasma): 16 nmol/L/mg
Cmax,ss,norm gMean (dose 2.5 mg, plasma): 27 nmol/L/mg
AUCτ,ss,norm Max (dose 10 mg, plasma): 258 nmol·h/L/mg
AUCτ,ss,norm Median (dose 10 mg, plasma): 194 nmol·h/L/mg
AUCτ,ss,norm Min (dose 10 mg, plasma): 164 nmol·h/L/mg
AUCτ,ss,norm gMean (dose 10 mg, plasma): 200 nmol·h/L/mg
Cmax,ss,norm Max (dose 10 mg, plasma): 48 nmol/L/mg
Cmax,ss,norm Median (dose 10 mg, plasma): 28 nmol/L/mg
Cmax,ss,norm Min (dose 10 mg, plasma): 17 nmol/L/mg
Cmax,ss,norm gMean (dose 10 mg, plasma): 27 nmol/L/mg
AUCτ,ss,norm Max (dose 25 mg, plasma): 266 nmol·h/L/mg
AUCτ,ss,norm Median (dose 25 mg, plasma): 182 nmol·h/L/mg
AUCτ,ss,norm Min (dose 25 mg, plasma): 138 nmol·h/L/mg
AUCτ,ss,norm gMean (dose 25 mg, plasma): 196 nmol·h/L/mg
Cmax,ss,norm Max (dose 25 mg, plasma): 32 nmol/L/mg
Cmax,ss,norm Median (dose 25 mg, plasma): 24 nmol/L/mg
Cmax,ss,norm Min (dose 25 mg, plasma): 18 nmol/L/mg
Cmax,ss,norm gMean (dose 25 mg, plasma): 25 nmol/L/mg
AUC (human, plasma, oral, 2.5 mg, 2.5 mg once daily, steady state, Study .2, fasted, read-out: AUCτ,ss Median): 0.458 µM·h
AUC (human, plasma, oral, 2.5 mg, 2.5 mg once daily, steady state, Study .2, fasted, read-out: AUCτ,ss gMean): 0.46 µM·h
Cmax (human, plasma, oral, 2.5 mg, 2.5 mg once daily, steady state, Study .2, fasted, read-out: Cmax,ss Median): 72 nM
Cmax (human, plasma, oral, 2.5 mg, 2.5 mg once daily, steady state, Study .2, fasted, read-out: Cmax,ss gMean): 66.6 nM
Tmax (human, plasma, oral, 2.5 mg, 2.5 mg once daily, steady state, Study .2, fasted, read-out: tmax,ss Mean): 1.33 h
Tmax (human, plasma, oral, 2.5 mg, 2.5 mg once daily, steady state, Study .2, fasted, read-out: tmax,ss g Mean): 1.28 h
AUC(0-inf) (human, plasma, oral, 2.5 mg, 2.5 mg single dose, Study .2, fasted, read-out: AUC0-inf Mean): 0.476 µM·h
AUC(0-inf) (human, plasma, oral, 2.5 mg, 2.5 mg single dose, Study .2, fasted, read-out: AUC0-inf Median): 0.501 µM·h
AUC(0-inf) (human, plasma, oral, 2.5 mg, 2.5 mg single dose, Study .2, fasted, read-out: AUC0-inf gMean): 0.468 µM·h
Cmax (human, plasma, oral, 2.5 mg, 2.5 mg single dose, Study .2, fasted, read-out: Cmax Median): 62.6 nM
Cmax (human, plasma, oral, 2.5 mg, 2.5 mg single dose, Study .2, fasted, read-out: Cmax gMean): 61.3 nM
Tmax (human, plasma, oral, 2.5 mg, 2.5 mg single dose, Study .2, fasted, read-out: tmax Mean): 1.41 h
Tmax (human, plasma, oral, 2.5 mg, 2.5 mg single dose, Study .2, fasted, read-out: tmax Median): 1.5 h
Tmax (human, plasma, oral, 2.5 mg, 2.5 mg single dose, Study .2, fasted, read-out: tmax gMean): 1.37 h
AUC (human, plasma, oral, 10 mg, 10 mg once daily, steady state, Study .2, fasted, read-out: AUCτ,ss Median): 1.94 µM·h
AUC (human, plasma, oral, 10 mg, 10 mg once daily, steady state, Study .2, fasted, read-out: AUCτ,ss gMean): 2 µM·h
Cmax (human, plasma, oral, 10 mg, 10 mg once daily, steady state, Study .2, fasted, read-out: Cmax,ss Median): 279 nM
Cmax (human, plasma, oral, 10 mg, 10 mg once daily, steady state, Study .2, fasted, read-out: Cmax,ss gMean): 272 nM
Tmax (human, plasma, oral, 10 mg, 10 mg once daily, steady state, Study .2, fasted, read-out: tmax,ss Mean): 1.43 h
Tmax (human, plasma, oral, 10 mg, 10 mg once daily, steady state, Study .2, fasted, read-out: tmax,ss Median): 1.5 h
Tmax (human, plasma, oral, 10 mg, 10 mg once daily, steady state, Study .2, fasted, read-out: tmax,ss g Mean): 1.4 h
AUC(0-inf) (human, plasma, oral, 10 mg, 10 mg single dose, Study .2, fasted, read-out: AUC0-inf Mean): 1.91 µM·h
AUC(0-inf) (human, plasma, oral, 10 mg, 10 mg single dose, Study .2, fasted, read-out: AUC0-inf Median): 1.83 µM·h
AUC(0-inf) (human, plasma, oral, 10 mg, 10 mg single dose, Study .2, fasted, read-out: AUC0-inf gMean): 1.89 µM·h
Cmax (human, plasma, oral, 10 mg, 10 mg single dose, Study .2, fasted, read-out: Cmax Median): 233 nM
Cmax (human, plasma, oral, 10 mg, 10 mg single dose, Study .2, fasted, read-out: Cmax gMean): 240 nM
Tmax (human, plasma, oral, 10 mg, 10 mg single dose, Study .2, fasted, read-out: tmax Mean): 1.5 h
Tmax (human, plasma, oral, 10 mg, 10 mg single dose, Study .2, fasted, read-out: tmax gMean): 1.48 h
AUC (human, plasma, oral, 25 mg, 25 mg once daily, steady state, Study .2, fasted, read-out: AUCτ,ss Median): 4.56 µM·h
AUC (human, plasma, oral, 25 mg, 25 mg once daily, steady state, Study .2, fasted, read-out: AUCτ,ss gMean): 4.89 µM·h
Cmax (human, plasma, oral, 25 mg, 25 mg once daily, steady state, Study .2, fasted, read-out: Cmax,ss Median): 603 nM
Cmax (human, plasma, oral, 25 mg, 25 mg once daily, steady state, Study .2, fasted, read-out: Cmax,ss gMean): 622 nM
Tmax (human, plasma, oral, 25 mg, 25 mg once daily, steady state, Study .2, fasted, read-out: tmax,ss Mean): 2.26 h
Tmax (human, plasma, oral, 25 mg, 25 mg once daily, steady state, Study .2, fasted, read-out: tmax,ss g Mean): 1.97 h
AUC(0-inf) (human, plasma, oral, 25 mg, 25 mg single dose, Study .2, fasted, read-out: AUC0-inf Mean): 4.9 µM·h
AUC(0-inf) (human, plasma, oral, 25 mg, 25 mg single dose, Study .2, fasted, read-out: AUC0-inf Median): 4.64 µM·h
AUC(0-inf) (human, plasma, oral, 25 mg, 25 mg single dose, Study .2, fasted, read-out: AUC0-inf gMean): 4.78 µM·h
Cmax (human, plasma, oral, 25 mg, 25 mg single dose, Study .2, fasted, read-out: Cmax Median): 569 nM
Cmax (human, plasma, oral, 25 mg, 25 mg single dose, Study .2, fasted, read-out: Cmax gMean): 592 nM
Tmax (human, plasma, oral, 25 mg, 25 mg single dose, Study .2, fasted, read-out: tmax Mean): 1.72 h
Tmax (human, plasma, oral, 25 mg, 25 mg single dose, Study .2, fasted, read-out: tmax Median): 1.5 h
Tmax (human, plasma, oral, 25 mg, 25 mg single dose, Study .2, fasted, read-out: tmax gMean): 1.6 h
